From patent US20250243171A1, “QUINAZOLINE COMPOUNDS FOR TREATMENT OF DISEASE” (Arthrosi Therapeutics, Inc., priority 2021, published 2025)
Structures can show the parent of a compound that is named as a salt.

Tests used:
Assay in all cases: EC50 assay: Ba/F3 stable cell proliferation (CCK-8, 72 h)
Type in all cases: cell-based
Ba/F3 stable cells [1] = target: T1, Ba/F3 stable cells (Homo sapiens, UniProt P00533, DUP767-769, cells depend on it); details: Ba/F3-EGFR V769-D770insASV cells
T1 construct: EC50 Ba/F3-EGFR V769-D770insASV; other: Ba/F3-EGFR V769-D770insASV cells, 72 h, CCK-8
Method in brief: (§1)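 Ba/F3 stable cells were seeded at 4,000 cells/90 μL/well in 96-well plates and held 2 h at 37° C. in 5% CO2, then given 10 μL of serially titrated compound (0.1% DMSO final). After 72 h at 37° C., CCK-8 reagent was added for 4 hours and absorbance read at 450 nm to derive EC50.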

Ba/F3 stable cells [2] = target: T2, Ba/F3 stable cells (Homo sapiens, UniProt P00533, DUP771-773, cells depend on it); details: Ba/F3-EGFR H773-V774insNPH cells
T2 construct: EC50 Ba/F3-EGFR H773-V774insNPH; other: Ba/F3-EGFR H773-V774insNPH cells, 72 h, CCK-8
Method in brief: as §1

Ba/F3 stable cells [3] = target: T3, Ba/F3 stable cells (Homo sapiens, UniProt P00533, T790M/L858R, cells depend on it); details: Ba/F3-EGFR L858R-T790M cells
T3 construct: EC50 Ba/F3-EGFR L858R-T790M; other: Ba/F3-EGFR L858R-T790M cells, 72 h, CCK-8
Method in brief: as §1

Ba/F3 stable cells [4] = target: T4, Ba/F3 stable cells (Homo sapiens, UniProt P00533, DUP768-770, cells depend on it); details: Ba/F3-EGFR D770-N771insSVD cells
T4 construct: EC50 Ba/F3-EGFR D770-N771insSVD; other: Ba/F3-EGFR D770-N771insSVD cells, 72 h, CCK-8
Method in brief: as §1

Ba/F3 stable cells [5] = target: T5, Ba/F3 stable cells (Homo sapiens, UniProt P00533, INS763FQEA, cells depend on it); details: Ba/F3-EGFR A763-Y764insFQEA cells
T5 construct: EC50 Ba/F3-EGFR A763-Y764insFQEA; other: Ba/F3-EGFR A763-Y764insFQEA cells, 72 h, CCK-8
Method in brief: as §1

Ba/F3 stable cells [6] = target: T6, Ba/F3 stable cells (Homo sapiens, UniProt P04626, DUP772-775, cells depend on it); details: Ba/F3-HER2 A775-G776insYVMA cells
T6 construct: EC50 Ba/F3-HER2 A775-G776insYVMA; other: Ba/F3-HER2 A775-G776insYVMA cells, 72 h, CCK-8
Method in brief: as §1

T4 sequence (P00533 with tags, fused parts or gaps DUP768-770): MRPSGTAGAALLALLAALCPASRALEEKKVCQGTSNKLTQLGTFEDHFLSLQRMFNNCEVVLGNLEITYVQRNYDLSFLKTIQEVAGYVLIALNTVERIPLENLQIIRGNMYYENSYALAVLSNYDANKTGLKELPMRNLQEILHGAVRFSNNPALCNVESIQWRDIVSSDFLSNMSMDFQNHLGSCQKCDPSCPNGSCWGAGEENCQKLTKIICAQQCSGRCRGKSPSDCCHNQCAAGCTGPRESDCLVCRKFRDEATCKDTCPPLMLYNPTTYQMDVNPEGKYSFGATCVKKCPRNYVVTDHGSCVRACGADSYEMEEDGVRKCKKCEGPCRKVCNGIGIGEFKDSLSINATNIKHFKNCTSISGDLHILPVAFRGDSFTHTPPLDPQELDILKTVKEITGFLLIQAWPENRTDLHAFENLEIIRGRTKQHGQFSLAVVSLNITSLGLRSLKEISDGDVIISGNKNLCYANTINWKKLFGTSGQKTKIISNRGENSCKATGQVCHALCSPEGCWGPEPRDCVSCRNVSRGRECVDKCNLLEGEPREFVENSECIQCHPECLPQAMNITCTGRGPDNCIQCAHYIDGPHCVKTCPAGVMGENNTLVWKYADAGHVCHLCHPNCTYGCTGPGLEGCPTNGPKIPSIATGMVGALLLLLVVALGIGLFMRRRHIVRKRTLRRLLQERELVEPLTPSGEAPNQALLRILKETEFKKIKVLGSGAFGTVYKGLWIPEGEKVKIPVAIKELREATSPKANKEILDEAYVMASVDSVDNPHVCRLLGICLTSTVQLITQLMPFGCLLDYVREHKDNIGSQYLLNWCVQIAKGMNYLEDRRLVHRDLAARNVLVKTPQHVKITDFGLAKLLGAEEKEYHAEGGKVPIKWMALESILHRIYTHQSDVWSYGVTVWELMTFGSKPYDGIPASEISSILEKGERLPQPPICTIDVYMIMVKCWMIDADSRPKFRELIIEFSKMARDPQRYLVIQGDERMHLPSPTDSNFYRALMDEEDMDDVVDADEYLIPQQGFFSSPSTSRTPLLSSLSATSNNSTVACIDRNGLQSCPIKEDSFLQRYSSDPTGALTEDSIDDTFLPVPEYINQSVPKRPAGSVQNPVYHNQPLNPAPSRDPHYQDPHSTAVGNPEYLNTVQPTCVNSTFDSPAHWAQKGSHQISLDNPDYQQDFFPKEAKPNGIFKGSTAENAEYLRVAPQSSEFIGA
T1 sequence (P00533 with tags, fused parts or gaps DUP767-769): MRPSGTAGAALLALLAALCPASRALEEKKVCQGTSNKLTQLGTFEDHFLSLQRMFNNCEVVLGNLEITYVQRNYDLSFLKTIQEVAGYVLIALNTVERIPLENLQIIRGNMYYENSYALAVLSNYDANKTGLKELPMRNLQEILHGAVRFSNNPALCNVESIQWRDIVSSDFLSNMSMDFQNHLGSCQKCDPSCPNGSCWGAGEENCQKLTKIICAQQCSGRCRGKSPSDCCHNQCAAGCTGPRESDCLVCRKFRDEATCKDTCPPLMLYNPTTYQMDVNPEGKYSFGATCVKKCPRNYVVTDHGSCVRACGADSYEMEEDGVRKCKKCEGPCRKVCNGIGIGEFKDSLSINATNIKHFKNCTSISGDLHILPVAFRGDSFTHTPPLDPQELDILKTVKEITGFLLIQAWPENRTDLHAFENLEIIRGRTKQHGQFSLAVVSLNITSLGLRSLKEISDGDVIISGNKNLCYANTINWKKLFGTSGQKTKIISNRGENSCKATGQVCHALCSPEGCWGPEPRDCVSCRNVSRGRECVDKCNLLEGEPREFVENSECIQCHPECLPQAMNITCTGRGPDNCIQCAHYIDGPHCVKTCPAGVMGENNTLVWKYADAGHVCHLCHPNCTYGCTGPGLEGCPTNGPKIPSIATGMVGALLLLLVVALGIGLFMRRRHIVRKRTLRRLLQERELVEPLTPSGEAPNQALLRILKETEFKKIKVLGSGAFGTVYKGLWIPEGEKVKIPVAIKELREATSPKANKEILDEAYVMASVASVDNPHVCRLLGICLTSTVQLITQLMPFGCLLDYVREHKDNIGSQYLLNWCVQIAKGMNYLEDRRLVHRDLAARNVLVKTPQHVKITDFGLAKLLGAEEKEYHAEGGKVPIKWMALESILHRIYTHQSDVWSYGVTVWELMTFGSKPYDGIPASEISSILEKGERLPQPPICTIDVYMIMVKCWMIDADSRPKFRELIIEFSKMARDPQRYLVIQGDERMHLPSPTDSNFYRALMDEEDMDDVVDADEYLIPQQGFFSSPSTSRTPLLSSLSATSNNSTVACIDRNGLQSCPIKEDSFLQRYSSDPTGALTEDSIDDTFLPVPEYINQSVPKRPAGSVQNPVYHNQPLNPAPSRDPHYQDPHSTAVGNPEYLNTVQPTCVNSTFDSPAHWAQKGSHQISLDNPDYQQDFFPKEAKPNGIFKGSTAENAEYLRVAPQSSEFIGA
T5 sequence (P00533 with tags, fused parts or gaps INS763FQEA): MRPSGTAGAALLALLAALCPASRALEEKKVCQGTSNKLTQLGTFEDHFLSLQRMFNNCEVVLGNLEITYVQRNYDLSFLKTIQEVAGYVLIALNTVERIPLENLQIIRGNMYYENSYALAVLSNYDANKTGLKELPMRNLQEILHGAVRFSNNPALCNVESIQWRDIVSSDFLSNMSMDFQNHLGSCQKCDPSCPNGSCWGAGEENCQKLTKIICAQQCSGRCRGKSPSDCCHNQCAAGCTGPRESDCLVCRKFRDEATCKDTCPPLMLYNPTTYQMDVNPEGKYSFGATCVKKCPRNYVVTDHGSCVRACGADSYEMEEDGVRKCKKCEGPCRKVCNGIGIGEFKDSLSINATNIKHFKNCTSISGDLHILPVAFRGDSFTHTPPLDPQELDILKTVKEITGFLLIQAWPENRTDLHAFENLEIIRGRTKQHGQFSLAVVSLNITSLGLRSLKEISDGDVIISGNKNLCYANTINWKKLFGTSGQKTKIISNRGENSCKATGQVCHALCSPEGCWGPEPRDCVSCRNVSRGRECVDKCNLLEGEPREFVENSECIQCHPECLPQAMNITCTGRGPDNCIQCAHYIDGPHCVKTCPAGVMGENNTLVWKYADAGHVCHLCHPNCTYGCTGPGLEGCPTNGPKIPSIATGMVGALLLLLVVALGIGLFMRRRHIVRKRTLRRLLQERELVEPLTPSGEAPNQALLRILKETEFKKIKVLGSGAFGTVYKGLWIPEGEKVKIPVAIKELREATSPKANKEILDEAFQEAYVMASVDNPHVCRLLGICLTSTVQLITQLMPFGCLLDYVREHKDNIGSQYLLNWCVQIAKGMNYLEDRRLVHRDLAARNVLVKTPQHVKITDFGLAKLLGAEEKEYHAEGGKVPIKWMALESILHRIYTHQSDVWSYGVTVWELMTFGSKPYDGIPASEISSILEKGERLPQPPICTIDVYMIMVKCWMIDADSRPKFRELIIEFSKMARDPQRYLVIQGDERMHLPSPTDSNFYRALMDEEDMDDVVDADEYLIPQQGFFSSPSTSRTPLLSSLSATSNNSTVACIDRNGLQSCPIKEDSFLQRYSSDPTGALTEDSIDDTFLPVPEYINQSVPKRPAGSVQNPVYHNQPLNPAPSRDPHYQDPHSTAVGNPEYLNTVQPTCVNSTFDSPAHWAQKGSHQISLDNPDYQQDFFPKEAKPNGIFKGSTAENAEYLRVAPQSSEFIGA
T6 sequence (P04626 with tags, fused parts or gaps DUP772-775): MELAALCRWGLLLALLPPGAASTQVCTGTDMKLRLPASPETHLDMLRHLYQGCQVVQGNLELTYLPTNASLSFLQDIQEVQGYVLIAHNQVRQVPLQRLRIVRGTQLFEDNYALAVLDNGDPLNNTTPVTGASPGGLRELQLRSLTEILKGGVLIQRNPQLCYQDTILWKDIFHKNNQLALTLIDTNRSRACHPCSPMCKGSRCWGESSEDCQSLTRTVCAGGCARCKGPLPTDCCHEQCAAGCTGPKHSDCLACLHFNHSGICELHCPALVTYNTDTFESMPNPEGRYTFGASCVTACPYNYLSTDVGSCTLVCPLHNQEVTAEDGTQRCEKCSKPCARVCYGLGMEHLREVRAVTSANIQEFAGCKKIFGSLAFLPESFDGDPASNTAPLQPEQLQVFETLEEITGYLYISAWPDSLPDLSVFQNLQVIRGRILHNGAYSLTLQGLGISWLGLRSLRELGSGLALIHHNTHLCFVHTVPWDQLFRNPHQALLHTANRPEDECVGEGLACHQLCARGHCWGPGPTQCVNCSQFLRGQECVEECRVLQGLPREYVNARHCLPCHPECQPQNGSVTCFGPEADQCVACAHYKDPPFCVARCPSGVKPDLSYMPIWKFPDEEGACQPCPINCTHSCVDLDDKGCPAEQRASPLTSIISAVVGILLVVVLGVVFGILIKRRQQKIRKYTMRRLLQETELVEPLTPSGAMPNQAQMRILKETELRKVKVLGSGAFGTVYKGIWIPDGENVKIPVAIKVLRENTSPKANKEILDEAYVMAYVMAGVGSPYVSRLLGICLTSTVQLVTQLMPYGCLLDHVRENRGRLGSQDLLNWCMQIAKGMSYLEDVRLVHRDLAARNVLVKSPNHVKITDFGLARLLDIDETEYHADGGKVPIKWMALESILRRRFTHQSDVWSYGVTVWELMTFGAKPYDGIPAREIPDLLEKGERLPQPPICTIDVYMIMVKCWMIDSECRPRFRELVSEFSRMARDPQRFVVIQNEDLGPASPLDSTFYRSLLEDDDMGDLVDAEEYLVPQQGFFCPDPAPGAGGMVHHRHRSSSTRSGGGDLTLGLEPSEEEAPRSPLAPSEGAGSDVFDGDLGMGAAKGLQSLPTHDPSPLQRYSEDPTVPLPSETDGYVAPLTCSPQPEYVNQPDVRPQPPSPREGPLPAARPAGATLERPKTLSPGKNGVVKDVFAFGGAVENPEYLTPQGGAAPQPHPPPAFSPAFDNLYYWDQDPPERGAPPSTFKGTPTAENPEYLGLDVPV

SMILES: C=CS(=O)(=O)NC1CC(Oc2cc3c(Nc4ccc(Cl)c(Cl)c4F)ncnc3cc2OC)C1 (stereo not drawn) [Compound 191, N-(3-((4-((3,4-dichloro-2-fluorophenyl)amino)-7-methoxyquinazolin-6-yl)oxy)cyclobutyl)ethenesulfonamide]
- EC50 (Ba/F3 stable cells [1]): ≤ 200 nM
- EC50 (Ba/F3 stable cells [2]): ≤ 200 nM
- EC50 (Ba/F3 stable cells [3]): ≤ 200 nM
- EC50 (Ba/F3 stable cells [4]): ≤ 200 nM
- EC50 (Ba/F3 stable cells [5]): ≤ 200 nM
- EC50 (Ba/F3 stable cells [6]): > 1000 nM

SMILES: C=CS(=O)(=O)N1CCC(Oc2cc3c(Nc4ccc(Cl)c(Cl)c4F)ncnc3cc2OC)CC1 [Compound 192, N-(3,4-dichloro-2-fluorophenyl)-7-methoxy-6-((1-(vinylsulfonyl)piperidin-4-yl)oxy)quinazolin-4-amine]
- EC50 (Ba/F3 stable cells [1]): ≤ 200 nM
- EC50 (Ba/F3 stable cells [2]): ≤ 200 nM
- EC50 (Ba/F3 stable cells [3]): ≤ 200 nM
- EC50 (Ba/F3 stable cells [4]): > 1000 nM
- EC50 (Ba/F3 stable cells [5]): ≤ 200 nM
- EC50 (Ba/F3 stable cells [6]): 200 to 1000 nM

SMILES: C=CS(=O)(=O)N1CCC(Oc2cc3c(C(=O)c4ccc(Cl)c(Cl)c4F)ncnc3cc2OC)CC1 [Compound 193, (3,4-dichloro-2-fluorophenyl)(7-methoxy-6-((1-(vinylsulfonyl)piperidin-4-yl)oxy)quinazolin-4-yl)methanone]
- EC50 (Ba/F3 stable cells [1]): 200 to 1000 nM
- EC50 (Ba/F3 stable cells [2]): 200 to 1000 nM
- EC50 (Ba/F3 stable cells [3]): 200 to 1000 nM
- EC50 (Ba/F3 stable cells [4]): > 1000 nM
- EC50 (Ba/F3 stable cells [5]): ≤ 200 nM
- EC50 (Ba/F3 stable cells [6]): > 1000 nM

SMILES: COc1cc2ncnc(Nc3ccc(Cl)c(Cl)c3F)c2cc1OC1CCN(C#N)CC1 [Compound 194, 4-((4-((3,4-dichloro-2-fluorophenyl)amino)-7-methoxyquinazolin-6-yl)oxy)piperidine-1-carbonitrile]
- EC50 (Ba/F3 stable cells [1]): ≤ 200 nM
- EC50 (Ba/F3 stable cells [2]): 200 to 1000 nM
- EC50 (Ba/F3 stable cells [3]): > 1000 nM
- EC50 (Ba/F3 stable cells [4]): > 1000 nM
- EC50 (Ba/F3 stable cells [5]): ≤ 200 nM
- EC50 (Ba/F3 stable cells [6]): > 1000 nM

SMILES: COc1cc2ncnc(Nc3ccc(Cl)c(Cl)c3F)c2cc1C1CN(C#N)C1 [Compound 195, 3-(4-((3,4-dichloro-2-fluorophenyl)amino)-7-methoxy-quinazolin-6-yl)azetidine-1-carbonitrile]
- EC50 (Ba/F3 stable cells [1]): > 1000 nM
- EC50 (Ba/F3 stable cells [2]): > 1000 nM
- EC50 (Ba/F3 stable cells [3]): 200 to 1000 nM
- EC50 (Ba/F3 stable cells [4]): > 1000 nM
- EC50 (Ba/F3 stable cells [5]): 200 to 1000 nM
- EC50 (Ba/F3 stable cells [6]): 200 to 1000 nM

SMILES: COc1cc2ncnc(Nc3ccc(Cl)c(Cl)c3F)c2cc1OC1CC(N(C)C#N)C1 (stereo not drawn) [Compound 196, N-(3-((4-((3,4-dichloro-2-fluorophenyl)amino)-7-methoxy-quinazolin-6-yl)oxy)cyclobutyl)-N-methylcyanamide]
- EC50 (Ba/F3 stable cells [1]): ≤ 200 nM
- EC50 (Ba/F3 stable cells [2]): 200 to 1000 nM
- EC50 (Ba/F3 stable cells [3]): > 1000 nM
- EC50 (Ba/F3 stable cells [4]): 200 to 1000 nM
- EC50 (Ba/F3 stable cells [5]): ≤ 200 nM
- EC50 (Ba/F3 stable cells [6]): 200 to 1000 nM

SMILES: COc1cc2ncnc(Nc3ccc(Cl)c(Cl)c3F)c2cc1C1=CCCN(C#N)C1 [Compound 197, 5-(4-((3,4-dichloro-2-fluorophenyl)amino)-7-methoxy-quinazolin-6-yl)-3,6-dihydropyridine-1(2H)-carbonitrile]
- EC50 (Ba/F3 stable cells [1]): > 1000 nM
- EC50 (Ba/F3 stable cells [2]): > 1000 nM
- EC50 (Ba/F3 stable cells [3]): > 1000 nM
- EC50 (Ba/F3 stable cells [4]): > 1000 nM
- EC50 (Ba/F3 stable cells [5]): 200 to 1000 nM
- EC50 (Ba/F3 stable cells [6]): > 1000 nM

SMILES: COc1cc2ncnc(Nc3ccc(Cl)c(Cl)c3F)c2cc1OC1CCCN(C#N)C1 (stereo not drawn) [Compound 198, 3-((4-((3,4-dichloro-2-fluorophenyl)amino)-7-methoxy-quinazolin-6-yl)oxy)piperidine-1-carbonitrile]
- EC50 (Ba/F3 stable cells [1]): 200 to 1000 nM
- EC50 (Ba/F3 stable cells [2]): 200 to 1000 nM
- EC50 (Ba/F3 stable cells [3]): > 1000 nM
- EC50 (Ba/F3 stable cells [4]): > 1000 nM
- EC50 (Ba/F3 stable cells [5]): ≤ 200 nM
- EC50 (Ba/F3 stable cells [6]): > 1000 nM

SMILES: C=CC(=O)N1CCC(Oc2c(OC)cc3ncnc4c3c2NC(=O)N4c2ccc(Cl)c(Cl)c2F)CC1 [Compound 199, 9-((1-acryloylpiperidin-4-yl)oxy)-3-(3,4-dichloro-2-fluorophenyl)-8-methoxy-1H-pyrimido[4,5,6-de]quinazolin-2(3H)-one]
- EC50 (Ba/F3 stable cells [1]): 200 to 1000 nM
- EC50 (Ba/F3 stable cells [2]): 200 to 1000 nM
- EC50 (Ba/F3 stable cells [3]): 200 to 1000 nM
- EC50 (Ba/F3 stable cells [4]): 200 to 1000 nM
- EC50 (Ba/F3 stable cells [5]): ≤ 200 nM
- EC50 (Ba/F3 stable cells [6]): 200 to 1000 nM

SMILES: C=CC(=O)N1CCC(Oc2c(OC)cc3ncnc4c3c2N(C)C(=O)N4c2ccc(Cl)c(Cl)c2F)CC1 [Compound 200, 9-((1-acryloylpiperidin-4-yl)oxy)-3-(3,4-dichloro-2-fluorophenyl)-8-methoxy-1-methyl-1H-pyrimido[4,5,6-de]quinazolin-2(3H)-one]
- EC50 (Ba/F3 stable cells [1]): 200 to 1000 nM
- EC50 (Ba/F3 stable cells [2]): 200 to 1000 nM
- EC50 (Ba/F3 stable cells [3]): > 1000 nM
- EC50 (Ba/F3 stable cells [4]): > 1000 nM
- EC50 (Ba/F3 stable cells [5]): ≤ 200 nM
- EC50 (Ba/F3 stable cells [6]): > 1000 nM

SMILES: C=CC(=O)N1CCC(Oc2c(OC)cc3ncnc4c3c2NC(=O)N4c2ccc(Cl)c(Cl)c2F)C1 (stereo not drawn) [Compound 205, 9-((1-acryloylpyrrolidin-3-yl)oxy)-3-(3,4-dichloro-2-fluorophenyl)-8-methoxy-1H-pyrimido[4,5,6-de]quinazolin-2(3H)-one]
- EC50 (Ba/F3 stable cells [1]): > 1000 nM
- EC50 (Ba/F3 stable cells [2]): > 1000 nM
- EC50 (Ba/F3 stable cells [3]): > 1000 nM
- EC50 (Ba/F3 stable cells [4]): > 1000 nM
- EC50 (Ba/F3 stable cells [5]): 200 to 1000 nM
- EC50 (Ba/F3 stable cells [6]): > 1000 nM

SMILES: C=CC(=O)N1CC=C(c2c(OC)cc3ncnc4c3c2N(C)C(=O)N4c2ccc(Cl)c(Cl)c2F)CC1 [Compound 206, 9-(1-acryloyl-1,2,3,6-tetrahydropyridin-4-yl)-3-(3,4-dichloro-2-fluorophenyl)-8-methoxy-1-methyl-1H-pyrimido[4,5,6-de]quinazolin-2(3H)-one]
- EC50 (Ba/F3 stable cells [1]): 200 to 1000 nM
- EC50 (Ba/F3 stable cells [2]): > 1000 nM
- EC50 (Ba/F3 stable cells [3]): > 1000 nM
- EC50 (Ba/F3 stable cells [4]): > 1000 nM
- EC50 (Ba/F3 stable cells [5]): ≤ 200 nM
- EC50 (Ba/F3 stable cells [6]): 200 to 1000 nM

SMILES: COc1cc2ncnc(Nc3ccc(Cl)c(Cl)c3F)c2c([N+](=O)[O-])c1OC1CCNCC1 [Compound 207, N-(3,4-dichloro-2-fluorophenyl)-7-methoxy-5-nitro-6-(piperidin-4-yloxy)quinazolin-4-amine hydrochloride]
- EC50 (Ba/F3 stable cells [1]): 200 to 1000 nM
- EC50 (Ba/F3 stable cells [2]): 200 to 1000 nM
- EC50 (Ba/F3 stable cells [3]): 200 to 1000 nM
- EC50 (Ba/F3 stable cells [4]): > 1000 nM
- EC50 (Ba/F3 stable cells [5]): ≤ 200 nM
- EC50 (Ba/F3 stable cells [6]): 200 to 1000 nM

SMILES: C=CC(=O)N1CCC(Oc2c(OC)cc3ncnc(Nc4ccc(Cl)c(Cl)c4F)c3c2[N+](=O)[O-])CC1 [Compound 208, 1-(4-((4-((3,4-dichloro-2-fluorophenyl)amino)-7-methoxy-5-nitroquinazolin-6-yl)oxy)piperidin-1-yl)prop-2-en-1-one]
- EC50 (Ba/F3 stable cells [1]): > 1000 nM
- EC50 (Ba/F3 stable cells [2]): > 1000 nM
- EC50 (Ba/F3 stable cells [3]): > 1000 nM
- EC50 (Ba/F3 stable cells [4]): > 1000 nM
- EC50 (Ba/F3 stable cells [5]): 200 to 1000 nM
- EC50 (Ba/F3 stable cells [6]): > 1000 nM

SMILES: C=CC(=O)N1CCC(Oc2c(OC)cc3ncnc4c3c2NC(=O)N4c2ccc(Cl)c(Cl)c2)CC1 [Compound 215, 9-((1-acryloylpiperidin-4-yl)oxy)-3-(3,4-dichlorophenyl)-8-methoxy-1H-pyrimido[4,5,6-de]quinazolin-2(3H)-one]
- EC50 (Ba/F3 stable cells [1]): > 1000 nM
- EC50 (Ba/F3 stable cells [2]): > 1000 nM
- EC50 (Ba/F3 stable cells [3]): > 1000 nM
- EC50 (Ba/F3 stable cells [4]): > 1000 nM
- EC50 (Ba/F3 stable cells [5]): ≤ 200 nM
- EC50 (Ba/F3 stable cells [6]): > 1000 nM

SMILES: C=CC(=O)N1CC(Oc2c(OC)cc3ncnc4c3c2NC(=O)N4c2ccc(Cl)c(Cl)c2F)C1 [Compound 216, 9-((1-acryloylazetidin-3-yl)oxy)-3-(3,4-dichloro-2-fluorophenyl)-8-methoxy-1H-pyrimido[4,5,6-de]quinazolin-2(3H)-one]
- EC50 (Ba/F3 stable cells [1]): ≤ 200 nM
- EC50 (Ba/F3 stable cells [2]): ≤ 200 nM
- EC50 (Ba/F3 stable cells [3]): ≤ 200 nM
- EC50 (Ba/F3 stable cells [4]): ≤ 200 nM
- EC50 (Ba/F3 stable cells [5]): ≤ 200 nM
- EC50 (Ba/F3 stable cells [6]): > 1000 nM

SMILES: C=CC(=O)N1CCC(Oc2c(OC)cc3ncnc4c3c2C=C(C)N4c2ccc(Cl)c(Cl)c2F)CC1 [Compound 217, 1-(4-((4-(3,4-dichloro-2-fluorophenyl)-8-methoxy-5-methyl-4H-pyrido[2,3,4-de]quinazolin-7-yl)oxy)piperidin-1yl)prop-2-en-1-one]
- EC50 (Ba/F3 stable cells [1]): ≤ 200 nM
- EC50 (Ba/F3 stable cells [2]): 200 to 1000 nM
- EC50 (Ba/F3 stable cells [3]): 200 to 1000 nM
- EC50 (Ba/F3 stable cells [4]): 200 to 1000 nM
- EC50 (Ba/F3 stable cells [5]): ≤ 200 nM
- EC50 (Ba/F3 stable cells [6]): > 1000 nM
